Key:
[1] = test system: A-427 lung carcinoma cells [heterozygous G12D]; assay: Cancer cell line proliferation (CellTiter-Glo), A-427; assay type: cell-based; settings: Homo sapiens, A427 cells, 72 hr, read-out: CTG(IC50), ABS-72 H(nM) A427
Protocol: (§1) The following cancer cell lines were employed: AGS gastric carcinoma [heterozygous G12D] (ATCC, CRL-1739); A-427 lung carcinoma [heterozygous G12D] (ATCC, HTB-53); ASPC1 pancreatic adenocarcinoma [homozygous G12D] (ATCC, CRL-1682) and SW1990 pancreatic adenocarcinoma [homozygous G12D] (ATCC CRL-2172). Cell lines were cultured essentially according to ATCC recommendations.
(§2) AGS, A-427, ASPC1, SW1990, and GP2D cells were plated in 96-well tissue culture plates at 4,000 cells/well and incubated at 37° C./5% CO2 for 72 hr in 100 μl of media. 3-fold serial dilutions of each test compound were prepared ranging from 20 μM to 1.02 nM. Each cell line was then treated with test compounds at various concentrations with a final concentration of 0.5% DMSO/well, and then incubated at 37° C./5% CO2 for 72 hr. 100 μl of CellTiter-Glo® Reagent (Promega Corporation, Madison, WI) was added to each well and processed according manufacturer's protocol. Results were analyzed and IC50 5 values were calculated in GraphPad 7 software.

[2] = test system: AGS gastric carcinoma cells [heterozygous G12D]; assay: Cancer cell line proliferation (CellTiter-Glo), AGS; assay type: cell-based; settings: Homo sapiens, 72 hr, read-out: CTG(IC50), ABS-72 H(nM) AGS
Protocol: as §1, §2

[3] = test system: ASPC1 pancreatic adenocarcinoma cells [homozygous G12D]; assay: Cancer cell line proliferation (CellTiter-Glo), ASPC1; assay type: cell-based; settings: Homo sapiens, ASPC-1 cells, 72 hr, read-out: CTG(IC50), ABS-72 H(nM) ASPC-1
Protocol: as §1, §2

[4] = test system: SW1990 pancreatic adenocarcinoma cells [homozygous G12D]; assay: Cancer cell line proliferation (CellTiter-Glo), SW1990; assay type: cell-based; settings: Homo sapiens, 72 hr, read-out: CTG(IC50), ABS-72 H(nM) SW1990
Protocol: as §1, §2

[5] = biological target: T1, KRAS (G12D)/SOS1 (Homo sapiens, UniProt P01116, G12D); assay: KRAS (G12D)/SOS1 homogeneous time-resolved fluorescence (HTRF) assay; assay type: binding; settings: absence of GTP, 4° C. for 3 hr
T1 construct: purchased Cisbio 63ADK000CB17PEH
T1 sequence (P01116 1-188 isoform P01116-2 G12D): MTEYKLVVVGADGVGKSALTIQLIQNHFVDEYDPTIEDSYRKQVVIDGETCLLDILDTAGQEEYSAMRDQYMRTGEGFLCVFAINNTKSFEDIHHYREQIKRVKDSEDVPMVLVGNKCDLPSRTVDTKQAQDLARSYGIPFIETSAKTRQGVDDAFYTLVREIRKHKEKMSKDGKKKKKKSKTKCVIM
Protocol: 3-fold serial dilutions of each test compound were prepared ranging from 20 μM to 1.02 nM. The test compound was mixed and incubated with reaction components, incubated in a sealed plate at 4° C. for 3 hr and fluorescence was measured using a PerkinElmer Envision plate reader. […]

[6] = Oral bioavailability in CD-1 mice; settings: male, CD-1, mouse, blood
Protocol: CD-1 mice were randomly assigned to 6 groups with 3 male mice in each compound group. […] Compounds were orally administered (PO) in a single dose to each mouse in its group. Blood samples were taken within 72 hours. Bioavailability (F %) was determined and by liquid chromatography-mass spectrometry (LC-MS/MS).

| SMILES | IC50 [1] [nM] | IC50 [2] [nM] | IC50 [3] [nM] | IC50 [4] [nM] | IC50 [5] [nM] | bioavailability [6] [%] | bioavailability ([6]; 25 mg/kg) [%] |
| --- | --- | --- | --- | --- | --- | --- | --- |
| C#Cc1c(F)ccc2cc(O)cc(-c3nc(OC)c4c(N5CC6CCC(C5)N6)nc(OCC5(CN6CC7CC7C6)CC5)nc4c3F)c12 (centres unmarked) [Example 2] | < 100 | < 100 | < 100 | < 100 | < 100 | – | – |
| C#Cc1c(F)ccc2cc(O)cc(-c3ncc4c(N5CC6CCC(C5)N6)nc(OCC5(CN6CCC(C(F)(F)F)CC6)CC5)nc4c3F)c12 [Example 14] | < 100 | < 100 | < 100 | < 100 | < 100 | 5.81 | – |
| C#Cc1c(F)ccc2cc(O)cc(-c3nc(Cl)c4c(N5CC6CCC(C5)N6)nc(OCC5(CN6CCC(C(F)(F)F)CC6)CC5)nc4c3F)c12 [Example 36] | 100 to 1000 | < 100 | < 100 | < 100 | < 100 | – | – |
| C#Cc1c(F)ccc2cc(O)cc(-c3nc(Cl)c4c(N5CC6CCC(C5)N6)nc(OCC5(CN6CCC(F)CC6)CC5)nc4c3F)c12 [Example 28] | 100 to 1000 | < 100 | < 100 | < 100 | < 100 | – | – |
| C#Cc1c(F)ccc2cc(O)cc(-c3nc(OC)c4c(N5CC6CCC(C5)N6)nc(OCC5(CN6CCC(C(F)(F)F)CC6)CC5)nc4c3F)c12 [Example 3] | < 100 | < 100 | < 100 | < 100 | < 100 | – | – |
| C#Cc1c(F)ccc2cc(O)cc(-c3nc(OC)c4c(N5CC6CCC(C5)N6)nc(OCC5(CN(C)C)CC5)nc4c3F)c12 [Ref. 4, reference compound] | – | < 100 | – | – | – | 0.23 | – |
| C#Cc1c(F)ccc2cc(O)cc(-c3ncc4c(N5CC6CCC(C5)N6)nc(OCC5(CN6CCC(OC(F)(F)F)CC6)CC5)nc4c3F)c12 [Example 20] | 100 to 1000 | < 100 | < 100 | < 100 | < 100 | – | – |
| C#Cc1c(F)ccc2cc(O)cc(-c3nc(OC)c4c(N5CC6CCC(C5)N6)nc(OCC5(CN6CC7C(C#N)C7C6)CC5)nc4c3F)c12 (centres unmarked) [Example 51] | – | < 100 | < 100 | < 100 | < 100 | 2.3 | – |
| C#Cc1c(F)ccc2cc(O)cc(-c3ncc4c(N5CC6CCC(C5)N6C(=O)OC(C)OC(C)=O)nc(OCC5(CN6CCC(F)CC6)CC5)nc4c3F)c12 (centres unmarked) [Example 52] | 100 to 1000 | < 100 | < 100 | < 100 | < 100 | – | – |
| C#Cc1c(F)ccc2cc(O)cc(-c3ncc4c(N5CC6CCC(C5)N6)nc(OCC5(CN6CC7CC7C6)CC5)nc4c3F)c12 (centres unmarked) [Example 13] | < 100 | < 100 | < 100 | < 100 | < 100 | 1.98 | – |
| [2H]C([2H])([2H])Oc1nc(-c2cc(O)cc3ccc(F)c(C#C)c23)c(F)c2nc(OCC3(CN4CC5CC5C4)CC3)nc(N3CC4CCC(C3)N4)c12 (centres unmarked) [Example 4] | < 100 | < 100 | < 100 | < 100 | < 100 | – | 5.4 |
| C#Cc1c(F)ccc2cc(O)cc(-c3ncc4c(N5CC6CCC(C5)N6)nc(OCC5(CN6CC7C(C#N)C7C6)CC5)nc4c3F)c12 (centres unmarked) [Example 44] | 100 to 1000 | < 100 | < 100 | < 100 | < 100 | 2.38 | – |
| C#Cc1cccc2cc(O)cc(-c3ncc4c(N5CC6CCC(C5)N6)nc(OCC5(CN6CCC(F)CC6)CC5)nc4c3F)c12 [Example 7] | < 100 | < 100 | < 100 | < 100 | < 100 | – | – |
| C#Cc1c(F)ccc2cc(O)cc(-c3ncc4c(N5CC6CCC(C5)N6)nc(OCC5(CN6CCC(F)CC6)CC5)nc4c3F)c12 [Example 1, 4-(4-(3,8-diazabicyclo[3.2.1]octan-3-yl)-8-fluoro-2-((1-((4-fluoropiperidin-1-yl)methyl)cyclopropyl)methoxy)pyrido[4,3-d]pyrimidin-7-yl)-5-ethynyl-6-fluoronaphthalen-2-ol] | < 100 | < 100 | < 100 | < 100 | < 100 | – | 0.8 |
| C#Cc1c(F)ccc2cc(O)cc(-c3nc(OC)c4c(N5CC6CCC(C5)N6)nc(OCC5(CN6CC7C(C6)C7(F)F)CC5)nc4c3F)c12 (centres unmarked) [Example 49] | – | < 100 | < 100 | < 100 | < 100 | 3.82 | – |

— US20260176290A1, “INHIBITORS OF KRAS(G12D)” (Ranok Therapeutics (Hangzhou) Co. Ltd., priority 2022, published 2026)
